Data as given in EP2140864A2 (H. Lundbeck A/S, priority 2001, dated 2002).
Like-named read-outs stand apart in the source and are kept apart here.

How the values were obtained:
[1] = biological target: T1, human α2C adrenoceptor (Homo sapiens, UniProt P18825); experiment: Radioligand binding, α2C adrenergic receptor
T1 construct: expressed in transfected cells
T1 sequence (P18825 1-462): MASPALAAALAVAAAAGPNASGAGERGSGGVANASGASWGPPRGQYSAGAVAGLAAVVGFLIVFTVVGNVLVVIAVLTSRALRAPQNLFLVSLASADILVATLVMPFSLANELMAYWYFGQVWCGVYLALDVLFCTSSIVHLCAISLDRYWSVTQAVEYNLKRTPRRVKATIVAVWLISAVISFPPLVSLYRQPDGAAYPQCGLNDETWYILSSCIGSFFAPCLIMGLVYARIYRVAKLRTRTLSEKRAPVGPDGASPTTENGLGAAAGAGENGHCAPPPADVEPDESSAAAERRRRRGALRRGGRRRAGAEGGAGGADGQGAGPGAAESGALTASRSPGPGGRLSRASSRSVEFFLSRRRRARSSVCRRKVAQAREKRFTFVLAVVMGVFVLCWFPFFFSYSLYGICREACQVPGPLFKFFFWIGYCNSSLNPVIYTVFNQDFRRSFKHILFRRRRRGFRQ
Text: (§1) Other receptors: Cell membranes expressing human dopamine D1, D2, D4 and rat D3 receptors were purchased through BioSignal, Inc. (Montreal, Canada). Binding assays using the histamine H1 receptor; dopamine receptors; and α1A, α1E, and α2 adrenergic receptors may be carried out according to the procedures described in U.S. Patent No. 5,780,485, the disclosure of which is hereby incorporated by reference in its entirety into this application. Binding assays using the dopamine D5 receptor may be carried out according to the procedures described in U.S. Patent No. 5,882,855, the disclosure of which is hereby incorporated by reference in its entirety into this application. Binding assays for the human α1D adrenergic receptor may be carried out according to the procedures described in U.S. Patent No. 6,156,518, the disclosure of which is hereby incorporated by reference in its entirety into this application.
(§2) Binding data were analyzed using nonlinear regression and statistical techniques available in the GraphPAD Prism package (San Diego, CA). Enzymatic assay data were derived from a standard curve of reference compound data.

[2] = biological target: T2, human dopamine D2 (Homo sapiens, UniProt P14416); experiment: Radioligand binding, dopamine D2 receptor
T2 construct: purchased BioSignal, Inc. (Montreal, Canada)
T2 sequence (P14416 whole entry): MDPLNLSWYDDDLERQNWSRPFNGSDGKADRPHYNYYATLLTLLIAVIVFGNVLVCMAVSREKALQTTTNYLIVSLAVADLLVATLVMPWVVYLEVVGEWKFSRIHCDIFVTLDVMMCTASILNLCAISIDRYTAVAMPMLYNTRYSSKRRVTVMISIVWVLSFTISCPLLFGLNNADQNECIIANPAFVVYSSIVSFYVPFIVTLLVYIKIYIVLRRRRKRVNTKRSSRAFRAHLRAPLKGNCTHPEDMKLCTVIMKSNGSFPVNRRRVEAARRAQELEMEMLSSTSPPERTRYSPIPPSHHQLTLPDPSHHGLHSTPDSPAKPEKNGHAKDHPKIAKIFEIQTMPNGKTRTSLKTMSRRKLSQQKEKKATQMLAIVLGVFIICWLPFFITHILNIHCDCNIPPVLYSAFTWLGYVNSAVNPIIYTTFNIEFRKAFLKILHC
Text: as §1, §2

[3] = biological target: T3, human 5HT1F (Homo sapiens, UniProt P30939); experiment: Radioligand binding, 5HT1F receptor ([3H]-serotonin)
T3 construct: expressed in transfected cells
T3 sequence (P30939 1-366): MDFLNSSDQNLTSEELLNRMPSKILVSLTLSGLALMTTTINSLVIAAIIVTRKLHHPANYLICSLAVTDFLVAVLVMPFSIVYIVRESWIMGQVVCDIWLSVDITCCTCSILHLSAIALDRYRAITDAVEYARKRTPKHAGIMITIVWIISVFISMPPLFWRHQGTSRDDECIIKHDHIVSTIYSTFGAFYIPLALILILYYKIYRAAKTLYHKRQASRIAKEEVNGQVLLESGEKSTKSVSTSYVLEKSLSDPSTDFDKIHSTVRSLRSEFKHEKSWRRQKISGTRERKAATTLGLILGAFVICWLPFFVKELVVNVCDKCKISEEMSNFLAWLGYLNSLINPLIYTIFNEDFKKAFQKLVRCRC
Procedure: Human 5HT1B, 5HT1D, 5HT1E, 5HT1F, and 5HT7 Receptors: The cell lysates of LM(tk-) clonal cell line stably transfected with the genes encoding each of these 5HT receptor-subtypes were prepared as described above. Cell membranes were suspended in 50mM Tris-HCl buffer (pH 7.4 at 37°C) containing 10 mM MgCl2, 0.2 mM EDTA, 10 µM pargyline, and 0.1% ascorbate. […] Nonspecific binding was determined in the presence of 10 µM serotonin. The bound radioligand was separated by filtration through GF/B filters using a cell harvester.
as §2

[4] = Table 10; Ki hα2C divided by Ki hGAL3
[5] = Table 10; Ki hD2 divided by Ki hGAL3
[6] = Table 8; Ki h5HT1F divided by Ki hGAL3

Row | Structure (SMILES) | Ki ([1]; Table 9; read-out: hα2C Ki) [µM] | selectivity ratio hα2C [1, 4] | Ki ([2]; Table 9; read-out: hD2 Ki) [µM] | selectivity ratio hD2 [2, 5] | Ki ([3]; Table 7; read-out: h5HT1F Ki) [µM] | selectivity ratio h5HT1F [3, 6] | Ki ([1]; read-out: hα2C Ki; Table 9) [µM] | Ki ([2]; read-out: hD2 Ki; Table 9) [µM] | Ki ([3]; read-out: h5HT1F Ki; Table 7) [µM]
1 | Cc1ccc(Nc2cc(N3CCCCC3)nc(N(C)CCc3c[nH]c4ccccc34)n2)cc1 [Example 11] | 3 | >30 | 0.782 | 9 | 1.78 | 20 | – | – | –
2 | CN(CCc1c[nH]c2ccccc12)c1nc(Nc2ccc(F)c(F)c2)cc(N2CCCCC2)n1 [Example 15] | 8.2 | >100 | 2.18 | 30 | 4.19 | >30 | – | – | –
3 | COc1cccc(Nc2cc(N3CCCCC3)nc(N(C)CCc3c[nH]c4ccccc34)n2)c1 [Example 17] | 10.3 | >100 | 1.81 | 21 | 10.3 | >100 | – | – | –
4 | Cc1ccc(Nc2cc(N3CCCCC3)nc(N(C)CCc3ccccc3)n2)cc1 [Example 22] | 2.74 | >100 | 1.5 | >30 | 5.77 | >100 | – | – | –
5 | Cc1ccc(Nc2cc(N3CCCCC3)nc(N3CCN(c4ncccc4C(F)(F)F)CC3)n2)cc1 [Example 34] | 8.83 | >100 | 2.5 | >100 | 4.8 | >100 | – | – | –
6 | COC[C@@H]1[C@@H](c2ccccc2)OCCN1c1nc(Nc2ccc(C)cc2)cc(N2CCCCC2)n1 [Example 49] | – | >30 | – | 28 | – | >30 | 9.24 | 5.94 | 8.89
7 | CN(C)c1cc(Nc2ccc(Cl)c(Cl)c2)nc(Nc2ccccc2)n1 [Example 60] | 7.2 | >30 | 26.8 | >100 | 2.12 | 25 | – | – | –
8 | Cc1ccc(Nc2cc(N(C)C)nc(N(C)CCc3c[nH]c4ccccc34)n2)cc1 [Example 77] | 0.634 | 8 | 0.91 | 11 | 3.24 | >30 | – | – | –
9 | O=C1C(=Nc2cccc(C(F)(F)F)c2)c2ccccc2N1c1ccccc1 [Example 92, 1-PHENYL-3- [[3-(TRIFLUOROMETHYL)PHENYL]IMINO]-1,3-DIHYDRO-2H-INDOL-2-ONE] | – | >100 | – | >100 | – | >100 | – | – | –
10 | O=C1C(=Nc2cccc(Cl)c2)c2ccccc2N1c1ccccc1 [Example 94, 3-[(3-CHLOROPHENYL)IMINO]-1-PHENYL-1,3-DIHYDRO-2H-INDOL-2-ONE] | 47.9 | >100 | 6.25 | >100 | 5.68 | >100 | – | – | –
11 | O=C1C(=Nc2ccc(C(F)(F)F)cc2)c2ccccc2N1c1ccccc1 [Example 95, 1-PHENYL-3-[[4-(TRIFLUOROMETHYL)PHENYL]IMINO]-1,3-DIHYDRO-2H-INDOL-2-ONE] | 48.6 | >100 | 9.72 | >100 | 4.45 | >100 | – | – | –
12 | O=C1C(=Nc2ccc(Cl)cc2)c2ccccc2N1c1ccccc1 [Example 97, 3-[(4-CHLOROPHENYL)IMINO]-1-PHENYL-1,3-DIHYDRO-2H-INDOL-2-ONE] | > 50 | >100 | > 50 | >100 | 4.16 | >30 | – | – | –
13 | O=C1C(=Nc2ccc(Br)cc2)c2ccccc2N1c1ccccc1 [Example 98, 3-[(4-BROMOPHENYL)IMINO]-1-PHENYL-1,3-DIHYDRO-2H-INDOL-2-ONE] | > 50 | >100 | 3.79 | >100 | 3.36 | >30 | – | – | –
